Experimental findings from patent publication US11643428B2, “Therapeutic drug for neurodegenerative disease and application thereof” (SHANGHAI PHARMACEUTICALS HOLDING CO., LTD., priority 2018, dated 2023) are described below.

For the assay, the system named is MPTP mice model. The assay is described as follows: Pole-climbing test in MPTP model. The following applies: PL201+MPTP vs NS+MPTP group, 50 mg intragastrically once a day, day 3 of the experiment. It is filed as in vivo, mouse. The procedure:
The mice were randomly divided into 4 groups: a group in which the mice was administrated with normal saline (NS), a MPTP model group in which the mice was intragastrical administrated with normal saline ([…]), a group in which the mice was intragastrical administrated with 50 mg of compound PL201 (PL201), and a MPTP model group in which the mice was intragastrical administrated with compound PL201 (PL201+MPTP).
11 animals were set in the group in which the mice was administrated with normal saline (NS), 14 animals were set in the MPTP model group in which the mice was intragastrical administrated with normal saline (NS+MPTP), 4 animals were set in the group in which the mice was intragastrically administrated with 50 mg of compound PL201 (PL201), 15 animals were set in the MPTP model group in which the mice was intragastrically administrated with the compound PL201 (PL201+MPTP). […]
On Day 3 of the experiment, the pole-climbing test of mice was carried out to evaluate the motor coordination ability of the mice. […] The time taken by the mice to turn from head upwards to head downwards completely was recorded as the time to turn around, and the time taken by the mice from moving downwards to all limbs reaching the bottom of the pole was recorded as the time to climb down. Time exceeded 30 seconds was recorded as 30 seconds. […]

Turning to `COc1cc(/C=C/C(=O)OC2OC(C)C(O)C(O)C2O)ccc1O` [PL201, (α-L-rhamnopyranosyl) ferulic acid ester], the “time to climb down” value was “reduced” and the “time to turn around” value was “reduced”.
